# From US6417384B1, “Radioiodinated phospholipid ether analogs and methods of using the same” (The Regents of the University of Michigan, priority 1999, dated 2002)
# What was measured:
# Assay type in all cases: in vivo, rat
# [1] = system: Dunning R3327 prostate tumor-bearing animals; assay: Gamma camera scintigraphy studies with Dunning R3327 prostate tumor; conditions: >40 μCi injected, 125I window, static fifteen-minute images
# Description: Comparative in vivo scintigaphic studies were also conducted using the C-12 analog 12-(p-iodophenyl)dodecyl phosphocholine and the C-18 analogs 18-(p-iodophenyl)octadecyl phosphocholine (Compound XVI) and 1-O-[18-(p-iodophenyl)octadecyl]-1,3-propanediol-3-phosphocholine (Compound XIV) utilized in Example 7. The imaging studies were performed on Dunning R3327 prostate tumor-bearing animals injected with >40 μCi of the radioiodinated phospholipid ether formulations described above. The anesthetized animals were imaged at selected times after injection on a gamma camera set to the ^125I window and outfitted with a low energy collimator. Static fifteen-minute images were obtained for each animal at the specified time. The results are illustrated in FIGS. 8A-8C.
# [2] = system: rats bearing Walker-256 tumor; assay: Biodistribution studies with Walker-256 carcinosarcoma
# Description: The three radiolabelled compounds illustrated in FIG. 5, including the improved C-18 analog 18-(p-iodophenyl)octadecyl phosphocholine (Compound XVI) described in Example 2, were prepared and administered to two sets of female Sprague Dawley rats (Charles River, Portage, Mich.). One normal set was used as a control, and one set was inoculated with Walker-256 carcinosarcoma cells (5×10^6 cells) in 0.2 ml saline in the right hindlimb. The Walker carcinoma cell line was provided by Dr. James Varani of the Department of Pathology at the University of Michigan, and is an accepted cell line representative of effect in humans. See, e.g. Tayck et al., “Influence of the Walker 256 Carcinosarcoma on Muscle, Tumor, and Whole-Body Protein Synthesis and Growth Rate in the Cancer-Bearing Rat, Cancer Res. 46:5649-54 (1986).
# The animals were used 6-8 days later when the tumor weight averaged 10 g. The radiolabelled compounds were dissolved in absolute ethanol (50-500 μl) and Tween-20 (0.1 ml/mg of compound) was added to the solution. Ethanol was removed by evaporation under a stream of nitrogen. Physiological saline or sterile water was added, to give a 2-3% Tween-20 solution which was subsequently mixed by vortex. The solubilized radiolabelled compounds (5-10 μCi, 0.3 ml) were administered intravenously via the tail vein to tumor bearing rats, and the animals were sacrificed by exsanguination while under ether anesthesia at the various time points. Blood samples were collected through cardiac puncture and selected tissues (liver, kidney, etc.) were removed, trimmed, blotted to remove excess blood and weighed. Large organs were thoroughly minced with scissors to obtain random representative tissue samples.
# For the biodistribution experiments with 12-(p-iodophenyl)dodecyl phosphocholine, weighed tissue samples were counted with a well scintillation counter (85% counting efficiency). The concentration of radioactivity in each tissue was expressed as a percentage of administered dose per gram of tissue.
# Tissue distribution was assessed at various times following administration of the radioiodinated chain length isomers. The results are expressed as the mean % administered dose per gram±SEM (% Dose/g±SEM).
# [3] = system: rats bearing Dunning (MATLyLu) prostate tumors; assay: Biodistribution studies with Dunning prostate tumor; conditions: for mean % administered dose per gram, Adrenal / mean % administered dose per gram, Blood / mean % administered dose per gram, Kidney / mean % administered dose per gram, Liver / mean % administered dose per gram, Lung / mean % administered dose per gram, Plasma / mean % administered dose per gram, Tumor: i.v., Dunning MAT-LyLu prostate tumor-bearing rats, mean ± SEM
# Description: The three radiolabelled compounds illustrated in FIGS. 7A-7C, including the improved C-18 analogs 18-(p-iodophenyl)octadecyl phosphocholine (Compound XVI—FIG. 7B) and 1-O-[18-(p-iodophenyl)octadecyl]-1,3-propanediol-3-phosphocholine (Compound XIV—FIG. 7C) described in Examples 2 and 3, respectively, were prepared and administered to two sets of male Copenhagen rats (Harlan Sprague-Dawley, Indianapolis, Ind.). One group of normal animals was used as a control, and another group was inoculated with Dunning prostate tumor cells (1×10^6 MAT-LyLu cells) in 0.2 ml saline in the right hindlimb. The MAT-LyLu subline of the Dunning (R-3327) adenocarcinoma prostate tumor was provided by Dr. Ken Pienta of the Department of Urology at the University of Michigan, and is an accepted cell line representative of effect in humans. See, e.g., Pienta et al., “Inhibition of Spontaneous Metastasis in a Rat Prostrate Cancer Model by Oral Administration of Modified Citrus Pectin, J. Natl. Cancer Inst. 87:348-53 (1995).
# The animals were maintained with free access to food and water until day 8-10. The radioiodinated phospholipid ether analog formulated in 2% Tween 20—sterile water (5-10 μCi, 0.3-0.4 ml, described above in Example 6) was administered intravenously into the tail vein of the tumor-bearing animals under metofane anesthesia. The animals were euthanized at selected time points after injection (n=3 per time point) and samples of blood, plasma and a variety of tissues including tumor and prostate are collected and analyzed for radioiodine content. Biodistribution values are calculated as the mean of the individual % administered dose per gram of tissue and % dose per organ values.
# [4] = female, Sprague Dawley, rat, in vivo, iv, 24 h
# [5] = female, Sprague Dawley, rat, in vivo, iv, 48 h
compound,measurement,setting,value
12-(p-iodophenyl)dodecyl phosphocholine [C-12 Analog],tumor localization in gamma camera scintigraphy images,[1],tumor was barely visible
same,"mean % administered dose per gram, Adrenal","[2]; Adrenal, 24 hr, i.v., Walker-256 tumor-bearing rats, mean ± SEM",0.33 ± 0.01 % Dose/g
same,"mean % administered dose per gram, Adrenal","[2]; Adrenal, 48 hr, i.v., Walker-256 tumor-bearing rats, mean ± SEM",0.29 ± 0.01 % Dose/g
same,"mean % administered dose per gram, Blood","[2]; Blood, 24 hr, i.v., Walker-256 tumor-bearing rats, mean ± SEM",0.27 ± 0.04 % Dose/g
same,"mean % administered dose per gram, Blood","[2]; Blood, 48 hr, i.v., Walker-256 tumor-bearing rats, mean ± SEM",0.27 ± 0.03 % Dose/g
same,blood levels,"[2]; Blood, 120 hours, i.v., Walker-256 tumor-bearing rats, mean ± SEM",0.22±0.03 % Dose/g
same,"mean % administered dose per gram, Duodenum","[2]; Duodenum, 24 hr, i.v., Walker-256 tumor-bearing rats, mean ± SEM",1.35 ± 0.13 % Dose/g
same,"mean % administered dose per gram, Duodenum","[2]; Duodenum, 48 hr, i.v., Walker-256 tumor-bearing rats, mean ± SEM",0.77 ± 0.06 % Dose/g
same,"mean % administered dose per gram, Kidney","[2]; Kidney, 24 hr, i.v., Walker-256 tumor-bearing rats, mean ± SEM",4.10 ± 0.44 % Dose/g
same,"mean % administered dose per gram, Kidney","[2]; Kidney, 48 hr, i.v., Walker-256 tumor-bearing rats, mean ± SEM",3.44 ± 0.08 % Dose/g
same,"mean % administered dose per gram, Liver","[2]; Liver, 24 hr, i.v., Walker-256 tumor-bearing rats, mean ± SEM",1.62 ± 0.17 % Dose/g
same,"mean % administered dose per gram, Liver","[2]; Liver, 48 hr, i.v., Walker-256 tumor-bearing rats, mean ± SEM",1.37 ± 0.01 % Dose/g
same,"mean % administered dose per gram, Lung","[2]; Lung, 24 hr, i.v., Walker-256 tumor-bearing rats, mean ± SEM",1.06 ± 0.04 % Dose/g
same,"mean % administered dose per gram, Lung","[2]; Lung, 48 hr, i.v., Walker-256 tumor-bearing rats, mean ± SEM",0.53 ± 0.01 % Dose/g
same,"mean % administered dose per gram, Plasma","[2]; Plasma, 24 hr, i.v., Walker-256 tumor-bearing rats, mean ± SEM",0.39 ± 0.05 % Dose/g
same,"mean % administered dose per gram, Plasma","[2]; Plasma, 48 hr, i.v., Walker-256 tumor-bearing rats, mean ± SEM",0.39 ± 0.05 % Dose/g
same,"mean % administered dose per gram, Tumor","[2]; Tumor, 24 hr, i.v., Walker-256 tumor-bearing rats, mean ± SEM",2.99 ± 0.34 % Dose/g
same,"mean % administered dose per gram, Tumor","[2]; Tumor, 48 hr, i.v., Walker-256 tumor-bearing rats, mean ± SEM",1.84 ± 0.09 % Dose/g
same,"mean % administered dose per gram, Adrenal",[3]; 24 hr,0.29 ± 0.01 % Dose/g
same,"mean % administered dose per gram, Adrenal",[3]; 48 hr,0.23 ± 0.01 % Dose/g
same,"mean % administered dose per gram, Blood",[3]; 24 hr,0.23 ± 0.02 % Dose/g
same,"mean % administered dose per gram, Blood",[3]; 48 hr,0.22 ± 0.01 % Dose/g
same,"mean % administered dose per gram, Kidney",[3]; 24 hr,4.45 ± 0.27 % Dose/g
same,"mean % administered dose per gram, Kidney",[3]; 48 hr,3.38 ± 0.43 % Dose/g
same,"mean % administered dose per gram, Liver",[3]; 24 hr,1.27 ± 0.02 % Dose/g
same,"mean % administered dose per gram, Liver",[3]; 48 hr,1.05 ± 0.03 % Dose/g
same,"mean % administered dose per gram, Lung",[3]; 24 hr,0.48 ± 0.03 % Dose/g
same,"mean % administered dose per gram, Lung",[3]; 48 hr,0.33 ± 0.02 % Dose/g
same,"mean % administered dose per gram, Plasma",[3]; 24 hr,0.32 ± 0.03 % Dose/g
same,"mean % administered dose per gram, Plasma",[3]; 48 hr,0.32 ± 0.01 % Dose/g
same,"mean % administered dose per gram, Tumor",[3]; 24 hr,0.37 ± 0.03 % Dose/g
same,"mean % administered dose per gram, Tumor",[3]; 48 hr,0.30 ± 0.01 % Dose/g
"C[N+](C)(C)CCOP(=O)([O-])OCCCOCCCCCCCCCCCCCCCCCCc1ccc(I)cc1 [Compound XIV, 1-O-[18-(p-Iodophenyl)octadecyl]-1,3-propanediol-3-phosphocholine]","mean % administered dose per gram, Adrenal",[3]; 24 hr,1.37 ± 0.03 % Dose/g
same,"mean % administered dose per gram, Adrenal",[3]; 48 hr,1.04 ± 0.07 % Dose/g
same,"mean % administered dose per gram, Blood",[3]; 24 hr,0.41 ± 0.01 % Dose/g
same,"mean % administered dose per gram, Blood",[3]; 48 hr,0.29 ± 0.01 % Dose/g
same,"mean % administered dose per gram, Kidney",[3]; 24 hr,0.73 ± 0.02 % Dose/g
same,"mean % administered dose per gram, Kidney",[3]; 48 hr,0.65 ± 0.01 % Dose/g
same,"mean % administered dose per gram, Liver",[3]; 24 hr,0.57 ± 0.02 % Dose/g
same,"mean % administered dose per gram, Liver",[3]; 48 hr,0.36 ± 0.01 % Dose/g
same,"mean % administered dose per gram, Lung",[3]; 24 hr,0.89 ± 0.07 % Dose/g
same,"mean % administered dose per gram, Lung",[3]; 48 hr,0.78 ± 0.02 % Dose/g
same,"mean % administered dose per gram, Plasma",[3]; 24 hr,0.58 ± 0.01 % Dose/g
same,"mean % administered dose per gram, Plasma",[3]; 48 hr,0.42 ± 0.03 % Dose/g
same,"mean % administered dose per gram, Tumor",[3]; 24 hr,0.43 ± 0.05 % Dose/g
same,"mean % administered dose per gram, Tumor",[3]; 48 hr,0.39 ± 0.01 % Dose/g
"C[N+](C)(C)CCOP(=O)([O-])OCCCCCCCCCCCCCCCCCCc1ccc(I)cc1 [Compound XVI, 18-(p-iodophenyl)octadecyl phosphocholine]","mean % administered dose per gram, Adrenal",[2]; [4],0.85 ± 0.04 % Dose/g
same,"mean % administered dose per gram, Blood",[2]; [4],0.96 ± 0.00 % Dose/g
same,"mean % administered dose per gram, Duodenum",[2]; [4],0.69 ± 0.05 % Dose/g
same,"mean % administered dose per gram, Kidney",[2]; [4],0.65 ± 0.00 % Dose/g
same,"mean % administered dose per gram, Liver",[2]; [4],0.55 ± 0.04 % Dose/g
same,"mean % administered dose per gram, Lung",[2]; [4],0.88 ± 0.06 % Dose/g
same,"mean % administered dose per gram, Plasma",[2]; [4],1.47 ± 0.03 % Dose/g
same,"mean % administered dose per gram, Tumor",[2]; [4],0.98 ± 0.07 % Dose/g
same,"mean % administered dose per gram, Adrenal",[2]; [5],0.92 ± 0.06 % Dose/g
same,"mean % administered dose per gram, Blood",[2]; [5],0.64 ± 0.07 % Dose/g
same,"mean % administered dose per gram, Duodenum",[2]; [5],0.68 ± 0.04 % Dose/g
same,"mean % administered dose per gram, Kidney",[2]; [5],0.59 ± 0.04 % Dose/g
same,"mean % administered dose per gram, Liver",[2]; [5],0.59 ± 0.05 % Dose/g
same,"mean % administered dose per gram, Lung",[2]; [5],0.76 ± 0.07 % Dose/g
same,"mean % administered dose per gram, Plasma",[2]; [5],0.95 ± 0.11 % Dose/g
same,"mean % administered dose per gram, Tumor",[2]; [5],1.14 ± 0.01 % Dose/g
same,blood levels,"[2]; female, Sprague Dawley, rat, in vivo, iv, 120 h",0.60±0.01 % Dose/g
same,clearance from non-target tissues,"[2]; rat, in vivo",much more rapid than from tumor
same,level in the tumor over a longer time period,"[2]; rat, in vivo",increased significantly
same,retention in the circulation,"[2]; rat, in vivo",retained in the circulation to a much greater extent than the other chain length isomers surveyed
same,"mean % administered dose per gram, Adrenal",[3]; 24 hr,0.88 ± 0.02 % Dose/g
same,"mean % administered dose per gram, Adrenal",[3]; 48 hr,0.76 ± 0.03 % Dose/g
same,"mean % administered dose per gram, Blood",[3]; 24 hr,0.88 ± 0.04 % Dose/g
same,"mean % administered dose per gram, Blood",[3]; 48 hr,0.64 ± 0.05 % Dose/g
same,"mean % administered dose per gram, Kidney",[3]; 24 hr,0.59 ± 0.02 % Dose/g
same,"mean % administered dose per gram, Kidney",[3]; 48 hr,0.51 ± 0.03 % Dose/g
same,"mean % administered dose per gram, Liver",[3]; 24 hr,0.57 ± 0.02 % Dose/g
same,"mean % administered dose per gram, Liver",[3]; 48 hr,0.40 ± 0.03 % Dose/g
same,"mean % administered dose per gram, Lung",[3]; 24 hr,0.84 ± 0.01 % Dose/g
same,"mean % administered dose per gram, Lung",[3]; 48 hr,0.69 ± 0.05 % Dose/g
same,"mean % administered dose per gram, Plasma",[3]; 24 hr,1.43 ± 0.06 % Dose/g
same,"mean % administered dose per gram, Plasma",[3]; 48 hr,0.99 ± 0.11 % Dose/g
same,"mean % administered dose per gram, Tumor",[3]; 24 hr,0.75 ± 0.04 % Dose/g
same,"mean % administered dose per gram, Tumor",[3]; 48 hr,0.81 ± 0.04 % Dose/g
same,tumor levels relative to the shorter chain analog,"[3]; versus C-12 analog, Dunning prostate tumor model",more than twice as high
